Measurements reported in patent US12441703B2, “Carboxamides as modulators of sodium channels” (VERTEX PHARMACEUTICALS INCORPORATED, priority 2019, dated 2025).

target: human NaV 1.8 (Homo sapiens, UniProt Q9Y5Y9); assay: E-VIPR assay for detecting and measuring NaV inhibition properties; format: cell-based; conditions: E-VIPR assay conducted in the presence of human serum; HEK cells expressing truncated human NaV 1.8; read-out: IC50
How it was run: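 Membrane-potential (coumarin/oxonol) readout after 10 s of 10 Hz biphasic electrical stimulation on E-VIPR. Compounds: 11-point 3-fold dilutions, […], 0.625% DMSO, 30 min at room temperature, human serum optional. Cells: HEK expressing truncated human NaV1.8 co-transduced with KIR2.1.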

Sequence of human NaV 1.8 (Q9Y5Y9 whole entry, looked up, the tested form may be a part): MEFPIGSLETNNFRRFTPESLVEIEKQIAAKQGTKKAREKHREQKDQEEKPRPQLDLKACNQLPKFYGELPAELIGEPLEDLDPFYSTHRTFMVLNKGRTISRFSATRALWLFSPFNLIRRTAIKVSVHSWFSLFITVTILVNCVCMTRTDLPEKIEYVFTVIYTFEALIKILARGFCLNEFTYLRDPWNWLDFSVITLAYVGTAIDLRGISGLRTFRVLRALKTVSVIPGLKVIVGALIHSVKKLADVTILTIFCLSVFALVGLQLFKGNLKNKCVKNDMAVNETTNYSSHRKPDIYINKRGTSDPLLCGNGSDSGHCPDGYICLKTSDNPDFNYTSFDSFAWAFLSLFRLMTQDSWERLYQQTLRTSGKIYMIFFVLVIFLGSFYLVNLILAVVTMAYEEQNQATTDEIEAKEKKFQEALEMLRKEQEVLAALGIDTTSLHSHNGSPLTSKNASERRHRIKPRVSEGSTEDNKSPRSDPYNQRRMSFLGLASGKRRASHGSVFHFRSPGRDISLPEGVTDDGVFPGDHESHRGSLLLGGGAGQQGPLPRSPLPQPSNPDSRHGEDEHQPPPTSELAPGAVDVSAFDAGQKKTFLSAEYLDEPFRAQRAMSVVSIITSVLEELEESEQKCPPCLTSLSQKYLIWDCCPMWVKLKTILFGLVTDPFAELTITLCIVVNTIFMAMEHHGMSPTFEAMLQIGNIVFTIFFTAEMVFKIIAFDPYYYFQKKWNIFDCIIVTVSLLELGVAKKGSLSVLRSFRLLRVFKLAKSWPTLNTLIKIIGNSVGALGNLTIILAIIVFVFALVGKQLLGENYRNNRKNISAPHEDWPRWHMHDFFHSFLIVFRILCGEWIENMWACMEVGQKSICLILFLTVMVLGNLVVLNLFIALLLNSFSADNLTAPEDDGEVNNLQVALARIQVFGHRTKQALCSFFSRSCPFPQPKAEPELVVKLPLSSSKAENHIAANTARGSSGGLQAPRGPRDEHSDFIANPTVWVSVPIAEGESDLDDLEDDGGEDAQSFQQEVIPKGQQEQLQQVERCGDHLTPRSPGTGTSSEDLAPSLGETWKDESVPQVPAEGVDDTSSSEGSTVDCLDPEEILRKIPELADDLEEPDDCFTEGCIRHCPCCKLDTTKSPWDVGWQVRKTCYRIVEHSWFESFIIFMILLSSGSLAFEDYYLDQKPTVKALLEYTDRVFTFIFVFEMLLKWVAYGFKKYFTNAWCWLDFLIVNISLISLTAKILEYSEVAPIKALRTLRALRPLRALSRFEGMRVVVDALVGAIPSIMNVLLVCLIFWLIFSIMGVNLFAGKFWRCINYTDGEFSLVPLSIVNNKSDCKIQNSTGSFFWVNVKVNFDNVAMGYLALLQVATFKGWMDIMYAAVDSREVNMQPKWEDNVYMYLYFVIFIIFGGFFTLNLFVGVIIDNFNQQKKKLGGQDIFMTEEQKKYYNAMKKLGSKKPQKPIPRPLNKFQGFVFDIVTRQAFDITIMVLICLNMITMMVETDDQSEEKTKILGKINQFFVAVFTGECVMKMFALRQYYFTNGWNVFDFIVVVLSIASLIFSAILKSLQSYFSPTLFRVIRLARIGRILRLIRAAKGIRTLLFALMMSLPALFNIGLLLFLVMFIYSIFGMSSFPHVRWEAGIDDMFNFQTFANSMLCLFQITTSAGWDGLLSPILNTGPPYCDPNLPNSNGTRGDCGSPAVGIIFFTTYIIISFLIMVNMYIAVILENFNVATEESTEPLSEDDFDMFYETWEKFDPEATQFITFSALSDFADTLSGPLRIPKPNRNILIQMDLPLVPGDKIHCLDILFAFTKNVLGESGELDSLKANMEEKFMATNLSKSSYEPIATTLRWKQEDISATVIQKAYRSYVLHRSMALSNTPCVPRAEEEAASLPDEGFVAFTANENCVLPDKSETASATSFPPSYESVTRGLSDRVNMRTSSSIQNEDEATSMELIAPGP

Structure (SMILES) | IC50 [nM]
NC(=O)c1ccc(NC(=O)c2c(Oc3ccc(OC(F)(F)F)cc3C3CC3)ccc(C(F)(F)F)c2F)cn1 [Compound 206, 5-[[6-[2-cyclopropyl-4-(trifluoromethoxy)phenoxy]-2-fluoro-3-(trifluoromethyl)benzoyl]amino]pyridine-2-carboxamide] | 360
Cc1c(Oc2ccc(C(F)(F)F)c(F)c2C(=O)Nc2ccc(C(N)=O)nc2)ccc(F)c1F [Compound 207, 5-[[6-(3,4-difluoro-2-methyl-phenoxy)-2-fluoro-3-(trifluoromethyl)benzoyl]amino]pyridine-2-carboxamide] | 370
Cc1cc(Cl)cc(C)c1Oc1ccc(C(F)(F)F)c(F)c1C(=O)Nc1ccc(C(N)=O)nc1 [Compound 208, 5-[[6-(4-chloro-2,6-dimethyl-phenoxy)-2-fluoro-3-(trifluoromethyl)benzoyl]amino]pyridine-2-carboxamide] | > 3000
COc1c(Oc2ccc(C(F)(F)F)c(F)c2C(=O)Nc2ccc(C(N)=O)nc2)ccc(OC(F)(F)F)c1F [Compound 209, 5-[[2-fluoro-6-[3-fluoro-2-methoxy-4-(trifluoromethoxy)phenoxy]-3-(trifluoromethyl)benzoyl]amino]pyridine-2-carboxamide] | 8
COc1cc(C(F)(F)C(F)(F)F)ccc1Oc1ccc(C(F)(F)F)c(F)c1C(=O)Nc1ccc(C(N)=O)nc1 [Compound 210, 5-[[2-fluoro-6-[2-methoxy-4-(1,1,2,2,2-pentafluoroethyl)phenoxy]-3-(trifluoromethyl)benzoyl]amino]pyridine-2-carboxamide] | 280
COc1cc(C)cc(OC)c1Oc1ccc(C(F)(F)F)c(F)c1C(=O)Nc1ccc(C(N)=O)nc1 [Compound 211, 5-[[6-(2,6-dimethoxy-4-methyl-phenoxy)-2-fluoro-3-(trifluoromethyl)benzoyl]amino]pyridine-2-carboxamide] | > 3000
NC(=O)c1ccc(NC(=O)c2c(Oc3c(F)cc(F)cc3F)ccc(C(F)(F)F)c2F)cn1 [Compound 212, 5-[[2-fluoro-3-(trifluoromethyl)-6-(2,4,6-trifluorophenoxy)benzoyl]amino]pyridine-2-carboxamide] | > 3000
Cc1cc(Cl)cc(Cl)c1Oc1ccc(C(F)(F)F)c(F)c1C(=O)Nc1ccc(C(N)=O)nc1 [Compound 213, 5-[[6-(2,4-dichloro-6-methyl-phenoxy)-2-fluoro-3-(trifluoromethyl)benzoyl]amino]pyridine-2-carboxamide] | > 3000
Cc1c(F)ccc(Oc2ccc(C(F)(F)F)c(F)c2C(=O)Nc2ccc(C(N)=O)nc2)c1C [Compound 214, 5-[[2-fluoro-6-(4-fluoro-2,3-dimethyl-phenoxy)-3-(trifluoromethyl)benzoyl]amino]pyridine-2-carboxamide] | > 3000
NC(=O)c1ccc(NC(=O)c2c(Oc3ccc(F)c(F)c3F)ccc(C(F)(F)F)c2F)cn1 [Compound 215, 5-[[2-fluoro-3-(trifluoromethyl)-6-(2,3,4-trifluorophenoxy)benzoyl]amino]pyridine-2-carboxamide] | 570
NC(=O)c1ccc(NC(=O)c2c(Oc3ccc(OC(F)(F)F)c(F)c3)ccc(C(F)(F)F)c2F)cn1 [Compound 216, 5-[[2-fluoro-6-[3-fluoro-4-(trifluoromethoxy)phenoxy]-3-(trifluoromethyl)benzoyl]amino]pyridine-2-carboxamide] | 340
NC(=O)c1ccc(NC(=O)c2c(Oc3ccc(OC(F)(F)F)c(Cl)c3)ccc(C(F)(F)F)c2F)cn1 [Compound 217, 5-[[6-[3-chloro-4-(trifluoromethoxy)phenoxy]-2-fluoro-3-(trifluoromethyl)benzoyl]amino]pyridine-2-carboxamide] | 160
Cc1cc(Cl)ccc1Oc1ccc(C(F)(F)F)c(F)c1C(=O)Nc1ccc(C(N)=O)nc1 [Compound 218, 5-[[6-(4-chloro-2-methyl-phenoxy)-2-fluoro-3-(trifluoromethyl)benzoyl]amino]pyridine-2-carboxamide] | 735
